Assays:
[1] = test system: GALRs; conditions: cited from earlier work
[2] = test system: GALR2; test: Zn2+ inhibition assay, NanoBiT; type: cell-based, human; conditions: HEK-293T cells, pH 7.3
[3] = test system: NMAR receptors; conditions: cited from earlier work
[4] = test system: ionotropic glutamate AMPA receptors; conditions: cited from earlier work
[5] = test system: GALR1; test: Zn2+ inhibition assay, NanoBiT; type: cell-based, human
[6] = target: GALR2 F271^7.32A (human) (UniProt O43603)
[7] = target: GALR1 V274G (human) (UniProt P47211)
[8] = target: GALR2 Q82^2.61 to alanine (human) (UniProt O43603)
[9] = target: GALR2 R184^5.35A (human) (UniProt O43603)
[10] = target: GALR1 Q92^2.61 to alanine (human) (UniProt P47211)
[11] = target: GALR2 F264 mutant (human) (UniProt O43603)
[12] = target: GALR1 F275 mutant (human) (UniProt P47211)
[13] = test system: GALRs; conditions: cited from earlier work; remark: listed apart in the source
[14] = test system: GALR1; conditions: cited from earlier work
[15] = test system: GALR2; test: GALR2-Gq coupling of ICL2 and TM5 mutants; type: cell-based, human; conditions: L^5.65A mutation in GALR2
[16] = test system: GALR1 or mutants; test: cAMP inhibition assay; type: cell-based, human; conditions: CHO cells
[17] = test system: GALR2 with ICL3 of GALR1; test: GALR2-Go coupling with ICL3 substitution; type: cell-based, human; conditions: ICL3 (214 to 225) of GALR2 replaced by GALR1 residues
[18] = test system: GALR1 and its mutants; test: NanoBiT mini-Go recruitment assay; type: cell-based, human
[19] = test system: GALR3; conditions: mutation of equivalent residue F263 in GALR3; cited from earlier work
[20] = test system: GALR2; test: NanoBiT assay, GALR2-Gαs coupling; type: cell-based, human; conditions: E(-3) in Gαs substituted with the equivalent Gαq residue
[21] = test system: GALR2 or mutants; test: IP1 accumulation assay; type: cell-based, human; conditions: HEK-293T cells, 1 h
[22] = test system: GALR2 and its mutants; test: NanoBiT mini-Gq recruitment assay; type: cell-based, human; conditions: mutations of conserved TM3/TM5/TM6 residues in GALR2
[23] = test system: GALR2; conditions: cited from earlier work
[24] = test system: GALR3; conditions: specific for GALR2 and GALR3; cited from earlier work
[25] = test system: GALR2; conditions: specific for GALR2 and GALR3; cited from earlier work
[26] = S235^ICL3 and K237^ICL3 mutations in GALR1

Molecule: [Zn+2] [Zn^2+, ZnCl2]
- inhibition of galanin binding to the receptors [1]: can inhibit galanin binding
- effect on galanin-induced GALR2 activation ([2]; below millimolar Zn2+): little effect
- Zn2+ concentration at which galanin activation of GALR2 is diminished ([2]; galanin-induced, above the physiological concentration): millimolar range
- effect on NMDA receptors [3]: inhibits
- effect on AMPA receptors [4]: inhibits
- character of Zn2+ inhibition ([5]; 1 μM galanin, wild-type GALR1, HEK-293T cells, pH 7.3): saturable or has a “ceiling” level
- effect of mutation on zinc inhibition ([5]; GALR1 H112^3.29A, 1 μM galanin, HEK-293T cells): little influence
- effect of mutation on zinc inhibition ([5]; GALR1 H263^6.51F, 1 μM galanin, HEK-293T cells): little influence
- effect of mutation on zinc inhibition ([5]; GALR1 H264^6.52F, 1 μM galanin, HEK-293T cells): little influence
- effect on galanin concentration-response curve ([5]; H267^6.55A mutant of GALR1, HEK-293T cells): little effect
- allosteric modulation of GALR1 ([5]; conclusion from NanoBiT assay, listed as zinc ion): negative allosteric regulator

Molecule: N-terminal region of galanin ([1]–[16]): N-terminal region of galanin
- binding affinity for the receptors relative to full-length galanin [1]: comparable to the full-length galanin

Molecule: galanin peptide 1 through 30
- fold reduction of galanin potency, IP1 accumulation assay [6]: 100 fold
- fold reduction of agonist potency, cAMP inhibition assay [7]: 370 fold
- fold reduction of galanin potency, IP1 accumulation assay [8]: 100 fold
- fold reduction of galanin potency, IP1 accumulation assay [9]: 10 fold
- fold reduction of galanin potency, cAMP inhibition assay [10]: 100 fold
- fold reduction of galanin potency, IP1 accumulation assay [11]: 100 fold
- fold reduction of galanin potency, cAMP inhibition assay [12]: 100 fold

Molecule: galanin-like peptide (GALP): endogenous galanin-like peptide (APAHRGRGGWTLNSAGYLLGPVLHLPQMGDQDGKRETALEILDLWKAIDGLPYSHPPQPS; Galanin-like peptide; UniProt Q9UBC7 25-84, looked up)
- activation of GALRs [13]: activate GALRs

Molecule: galanin: 29- or 30-amino acid peptide, endogenous ligand; galanin peptide 1 through 30 (MedChemExpress)
- binding affinity for GALRs [1]: subnanomolar range
- reduction of galanin binding affinity ([14]; H267^6.55 mutation of GALR1): more than 100 fold
- galanin binding affinity of mutants ([14]; mutations of F115 and H264 of GALR1): significantly reduce
- effect of mutation on galanin potency [15]: significantly decreased
- reduction of agonist (galanin) potency vs wild type ([16]; V274G mutant of GALR1 (ECL3), 1 μM forskolin): about 370 fold
- effect of mutation on galanin potency ([16]; W188^ECL2 mutant of GALR1, compared with H176^ECL2 mutant of GALR2): distinct effect
- reduction of galanin potency vs wild type ([16]; mutation of F275 (ECL3) in GALR1, 1 μM forskolin): ~100 fold
- ability of GALR2 to bind Go [17]: acquired the ability to bind Go
- effect of mutation on galanin maximum response [18, 26]: dramatically reduced
- effect of mutation on galanin potency [18, 26]: modest effect
- recruitment of Gi ([18]; mutations of conserved TM3/TM5/TM6 residues in GALR1): impair
- galanin binding to mutant [19]: completely abolishes
- coupling efficiency between GALR2 and Gs [20]: significantly increased
- reduction of galanin potency vs wild type ([21]; Q82^2.61 to alanine mutant of GALR2): ~100 fold
- effect of mutation on galanin potency ([21]; Q263A mutant of GALR2 (ECL3)): little effect
- reduction of galanin potency vs wild type ([21]; R184^5.35A mutant of GALR2): about 10 fold
- reduction of galanin potency vs wild type ([21]; mutation of F264 (ECL3) in GALR2): ~100 fold
- recruitment of Gq [22]: impair
- galanin binding to mutant ([23]; mutation of F264 in GALR2): completely abolishes
- galanin binding affinity of mutants ([23]; mutations of F106, H252, H253, I256, W260, and F261 of GALR2): significantly reduce

B1: spexin: endogenous peptide spexin has A7M and G8L mutations in galanin (peptide, UniProt Q9BT56 27-116, looked up)
Spexin: APQRLLERRNWTPQAMLYLKGAQGRRFISDQSRRKDLSDRPLPERRSPNPQLLTIPEAATILLASLQKSPEDEEKNFDQTRFLEDSLLNW
modifications: Spexin
- activation of GALR3 [24]: specifically activates GALR2 and GALR3
- activation of GALRs [13]: activate GALRs
- activation of GALR2 [25]: specifically activates GALR2 and GALR3

Reference: publication PMC9173784 (Proceedings of the National Academy of Sciences of the …, 2022)
